In the supplement of paper PMC10307832:

Compound: Cc1nc(C(=O)NCC(=O)O)c(O)c2ccc(Oc3ccccc3)cc12 [FG-4592] + Cc1nc(Nc2ncc(C(=O)Nc3c(C)cccc3Cl)s2)cc(N2CCN(CCO)CC2)n1 [Dasatinib] (partner 0.075 µM)
Assay: relative viability (nuclei count vs DMSO), 5 days (fraction); higher = more cells survive
Settings: first compound 0.08 µM
Procedure, shortened: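 Values are medians from duplicate plates. Each reflects relative viability, defined as the nuclei count of treated wells over that of vehicle wells. Lung cancer cell lines in 1536-well plates were pin-tool dosed one day after seeding with one drug alone or with a fixed anchor-drug dose plus five library-drug doses (not always all listed) in √10 steps, then fixed, stained and imaged at 4× after 5 days.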

Cell Line	relative viability
LU99A	0.535
BEN	0.323
HARA	0.272
HCC-78	0.472
NCI-H322M	0.248
LCLC-97TM1	0.873
NCI-H2009	0.323
A-427	0.649
NCI-H441	0.56
NCI-H661	0.983
NCI-H1734	0.409
NCI-H460	0.527
NCI-H2347	0.323
SK-LU-1	0.167
201T	0.549
NCI-H1915	0.324

Cell Line	relative viability
HCC-827	0.264
LXF-289	0.22
NCI-H23	0.841
NCI-H647	0.186
CAL-12T	0.378
NCI-H1651	0.416
EPLC-272H	0.389
NCI-H2228	0.569
NCI-H1355	0.763
NCI-H3122	0.737
NCI-H1437	0.409
NCI-H1755	0.416
NCI-H2023	0.612
HCC-15	0.65
PC-14	0.274
EKVX	0.629

Same assay, conditions: first compound 0.253 µM

Cell Line	relative viability
HOP-62	0.569
LU99A	0.371
BEN	0.348
HARA	0.208
HCC-78	0.333
NCI-H322M	0.249
LCLC-97TM1	0.734
NCI-H2009	0.172
A-427	0.611
NCI-H441	0.547
NCI-H661	0.825
NCI-H1734	0.465
NCI-H460	0.511
SK-LU-1	0.17
201T	0.566
NCI-H1915	0.283

Cell Line	relative viability
HCC-827	0.379
LXF-289	0.186
NCI-H23	0.669
NCI-H647	0.202
CAL-12T	0.424
NCI-H1651	0.439
EPLC-272H	0.302
NCI-H2228	0.411
NCI-H1355	0.638
NCI-H3122	0.824
NCI-H1437	0.309
NCI-H1755	0.435
NCI-H2023	0.529
HCC-15	0.601
PC-14	0.195
EKVX	0.555

Same assay, conditions: first compound 0.8 µM

Cell Line	relative viability
HOP-62	0.567
LU99A	0.402
BEN	0.262
HARA	0.266
HCC-78	0.379
NCI-H322M	0.219
LCLC-97TM1	0.907
NCI-H2009	0.267
A-427	0.741
NCI-H441	0.524
NCI-H661	0.874
NCI-H1734	0.444
NCI-H460	0.43
NCI-H2347	0.263
SK-LU-1	0.15
201T	0.616
NCI-H1915	0.286

Cell Line	relative viability
HCC-827	0.386
LXF-289	0.19
NCI-H23	0.706
NCI-H647	0.145
CAL-12T	0.406
NCI-H1651	0.356
EPLC-272H	0.251
NCI-H2228	0.548
NCI-H1355	0.476
NCI-H3122	0.877
NCI-H1437	0.335
NCI-H1755	0.34
NCI-H2023	0.54
HCC-15	0.536
PC-14	0.275
EKVX	0.53

Same assay, conditions: first compound 2.53 µM

Cell Line	relative viability
HOP-62	0.642
LU99A	0.561
BEN	0.365
HARA	0.24
HCC-78	0.386
NCI-H322M	0.245
LCLC-97TM1	0.928
NCI-H2009	0.283
A-427	0.725
NCI-H441	0.55
NCI-H661	0.827
NCI-H1734	0.454
NCI-H460	0.457
NCI-H2347	0.284
SK-LU-1	0.159
201T	0.569
NCI-H1915	0.31

Cell Line	relative viability
HCC-827	0.259
LXF-289	0.168
NCI-H23	0.694
NCI-H647	0.172
CAL-12T	0.361
NCI-H1651	0.325
EPLC-272H	0.412
NCI-H2228	0.475
NCI-H1355	0.553
NCI-H3122	0.983
NCI-H1437	0.392
NCI-H1755	0.45
NCI-H2023	0.522
HCC-15	0.554
PC-14	0.311
EKVX	0.486

Same assay, conditions: first compound 8 µM

Cell Line	relative viability
HOP-62	0.628
LU99A	0.58
BEN	0.305
HARA	0.234
HCC-78	0.32
NCI-H322M	0.224
LCLC-97TM1	1.03
NCI-H2009	0.27
A-427	0.717
NCI-H441	0.555
NCI-H661	0.835
NCI-H1734	0.401
NCI-H460	0.368
NCI-H2347	0.279
SK-LU-1	0.151
201T	0.646

Cell Line	relative viability
NCI-H1915	0.257
HCC-827	0.282
LXF-289	0.189
NCI-H23	0.862
NCI-H647	0.183
CAL-12T	0.365
NCI-H1651	0.367
EPLC-272H	0.334
NCI-H2228	0.489
NCI-H1355	0.554
NCI-H3122	0.563
NCI-H1437	0.345
NCI-H1755	0.406
NCI-H2023	0.377
HCC-15	0.681
